Assay results as given in paper PMC12307812 (Nature Communications, 2025).
Read-outs that look alike come from different tables or passages of the source.

Legend:
[1] = test system: pseudovirus bearing S protein of MERS-CoV; assay: organism not typed; type: cell-based; settings: for IC50: Calu-3, read-out: IC50 estimate, pseudovirus cell entry MERS-S; for inhibition at 0.00025 µM / inhibition at 0.0025 µM / inhibition at 0.025 µM / inhibition at 0.25 µM / inhibition at 2.5 µM / inhibition at 25 µM: Calu-3; for inhibition at 0.00025 µM: concentration 0.25 nM; for inhibition at 0.0025 µM: concentration 2.5 nM; for inhibition at 0.025 µM: concentration 25 nM; for inhibition at 0.25 µM: concentration 250 nM; for inhibition at 2.5 µM: concentration 2500 nM; for inhibition at 25 µM: concentration 25000 nM
[2] = test system: pseudovirus bearing VSV-G; assay: organism not typed; type: cell-based; settings: Calu-3; for inhibition at 0.00025 µM: concentration 0.25 nM; for inhibition at 0.0025 µM: concentration 2.5 nM; for inhibition at 0.025 µM: concentration 25 nM; for inhibition at 0.25 µM: concentration 250 nM; for inhibition at 2.5 µM: concentration 2500 nM; for inhibition at 25 µM: concentration 25000 nM
[3] = test system: pseudovirus bearing S protein of HCoV-229E; assay: organism not typed; type: cell-based; settings: for IC50: Calu-3, read-out: IC50 estimate, pseudovirus cell entry 229E-S; for inhibition at 0.00025 µM / inhibition at 0.0025 µM / inhibition at 0.025 µM / inhibition at 0.25 µM / inhibition at 2.5 µM / inhibition at 25 µM: Calu-3, read-out: mean inhibition
[4] = test system: pseudovirus bearing S protein of SARS-CoV-2 lineage B.1.617.2; assay: organism not typed; type: cell-based; settings: for inhibition at 0.00025 µM / inhibition at 0.0025 µM / inhibition at 0.025 µM / inhibition at 0.25 µM / inhibition at 2.5 µM / inhibition at 25 µM: Calu-3, B.1.617.2; for inhibition at 0.00025 µM: concentration 0.25 nM; for inhibition at 0.0025 µM: concentration 2.5 nM; for inhibition at 0.025 µM: concentration 25 nM; for inhibition at 0.25 µM: concentration 250 nM; for inhibition at 2.5 µM: concentration 2500 nM; for inhibition at 25 µM: concentration 25000 nM; for IC50: Calu-3 cells, read-out: IC50, pseudovirus cell entry B.1.617.2
[5] = test system: pseudovirus bearing S protein of SARS-CoV-1; assay: organism not typed; type: cell-based; settings: for IC50: Calu-3, read-out: IC50 estimate, pseudovirus cell entry SARS-1-S; for inhibition at 0.00025 µM / inhibition at 0.0025 µM / inhibition at 0.025 µM / inhibition at 0.25 µM / inhibition at 2.5 µM / inhibition at 25 µM: Calu-3; for inhibition at 0.00025 µM: concentration 0.25 nM; for inhibition at 0.0025 µM: concentration 2.5 nM; for inhibition at 0.025 µM: concentration 25 nM; for inhibition at 0.25 µM: concentration 250 nM; for inhibition at 2.5 µM: concentration 2500 nM; for inhibition at 25 µM: concentration 25000 nM
[6] = test system: pseudoviruses carrying diverse coronavirus S proteins; type: cell-based
[7] = test system: SARS-CoV-2 isolate hCoV-19/Germany/FI1103201/2020; assay: microbe, parasite or virus in culture; type: cell-based
[8] = test system: Calu-3 cells; assay: Analysis of cell viability (CellTiter-Glo); type: cell-based, human; settings: 24 h, Supplementary Fig. S6
Description: Cells incubated with a medium containing DMSO (solvent) served as controls. Cell viability was assessed using the CellTiter-Glo® Luminescent Cell Viability Assay (Promega) according to the manufacturer’s instructions. Data normalization was performed as follows: cell viability in the absence of inhibitor (DMSO-only samples) was set as 100% and the relative viability of cells incubated with the respective inhibitor concentrations was calculated.

Row | SMILES | IC50 [1] [nM] | inhibition at 0.00025 µM [1] [%] | inhibition at 0.0025 µM [1] [%] | inhibition at 0.025 µM [1] [%] | inhibition at 0.25 µM [1] [%] | inhibition at 2.5 µM [1] [%] | inhibition at 25 µM [1] [%] | inhibition at 0.00025 µM [2] [%] | inhibition at 0.0025 µM [2] [%] | inhibition at 0.025 µM [2] [%] | inhibition at 0.25 µM [2] [%] | inhibition at 2.5 µM [2] [%] | inhibition at 25 µM [2] [%] | IC50 [3] [nM] | inhibition at 0.00025 µM [3] [%] | inhibition at 0.0025 µM [3] [%] | inhibition at 0.025 µM [3] [%] | inhibition at 0.25 µM [3] [%] | inhibition at 2.5 µM [3] [%] | inhibition at 25 µM [3] [%] | other results
1 | CN(C)C(=O)COC(=O)Cc1ccc(OC(=O)c2ccc(NC(=N)N)cc2)cc1 [camostat] | 189 ± 12.3 | 0.136 | 2.04 | 13.3 | 57.4 | 89.2 | 95.7 | 0.261 | -1.2 | -0.393 | -0.191 | -0.407 | -1.53 | 2010 ± 177 | 1.18 | 7.64 | 11.6 | 30.5 | 52.3 | 73.8 | inhibition at 0.00025 µM [4]: -0.882%; inhibition at 0.0025 µM [4]: 3.07%; inhibition at 0.025 µM [4]: 10.5%; inhibition at 0.25 µM [4]: 57.9%; inhibition at 2.5 µM [4]: 90.4%; inhibition at 25 µM [4]: 96.4%; IC50 [4]: 191 nM; IC50 [5]: 193 ± 70.4 nM; inhibition at 0.00025 µM [5]: 3.15%; inhibition at 0.0025 µM [5]: 5.85%; inhibition at 0.025 µM [5]: 19.9%; inhibition at 0.25 µM [5]: 63.5%; inhibition at 2.5 µM [5]: 76.2%; inhibition at 25 µM [5]: 83.2%
2 | CC(C)(C)NC(=O)N1CCN(C(=O)N2C(=O)C(CCCNC(=N)N)C2C(=O)O)CC1 (stereo not shown) [BMS-262084] | 101 ± 24.2 | 0.787 | -4.71 | 29.1 | 67.2 | 89.3 | 93 | 2.19 | 1.17 | 1.08 | 0.456 | 0.565 | -2.28 | 990 ± 209 | 0.992 | 8.96 | 22 | 42.2 | 58.4 | 72.2 | fold more potent than camostat (lower IC50) [6]: ~2 fold; fold more potent than camostat (lower IC50) ([6]; SARS-CoV-2 lineages B.1, B.1.617.2, EG.5.1, BA.2.86, Calu-3 cells): 3–8 fold; IC50 ([7]; Severe acute respiratory syndrome coronavirus 2, Calu-3, 24 h, read-out: IC50, relative infectivity of SARS-CoV-2): 510 nM; IC50 ([7]; Severe acute respiratory syndrome coronavirus 2, Calu-3 cells, Figure S5, read-out: IC50 estimate, SARS-CoV-2 entry inhibition): 509 ± 146 nM; cytotoxicity at concentrations used for preincubation [8]: noncytotoxic; inhibition at 0.00025 µM [4]: -3.95%; inhibition at 0.0025 µM [4]: 6%; inhibition at 0.025 µM [4]: 32.3%; inhibition at 0.25 µM [4]: 82.7%; inhibition at 2.5 µM [4]: 96.1%; inhibition at 25 µM [4]: 96.1%; IC50 [4]: 52.5 nM; IC50 [5]: 82 ± 23.1 nM; inhibition at 0.00025 µM [5]: 3.34%; inhibition at 0.0025 µM [5]: 5.92%; inhibition at 0.025 µM [5]: 31.7%; inhibition at 0.25 µM [5]: 73.6%; inhibition at 2.5 µM [5]: 80.6%; inhibition at 25 µM [5]: 91.7%
